{"source": "patent US20240361338A1", "about": "“DIAGNOSIS AND TREATMENT OF ECTOPIC ENDOMETRIOSIS” (FERRING B.V., priority 2021, published 2024)", "assay_type_in_all_cases": "cell-based, human", "key": {"[1]": {"tested_on": "D2 mRNA expression in ectopic EMSCs", "experiment": "Real Time PCR of D2 mRNA expression after quinagolide treatment", "conditions": "ectopic lines, 48 h of 100 nM quinagolide, vs untreated", "from_the_text": "FIG. 2: Effect of quinagolide on D2 expression in eutopic and ectopic EMSCs. A: Western blot analysis showing the presence of D2 in […] different passages, and in sorted SUSD2^+ E-MSCs. B: Real Time PCR analysis showing the relative quantification (RQ) of D2 mRNA expression by eutopic and ectopic EMSCs. Data are represented as mean±SD of three different eutopic or ectopic (ovarian and peritoneal) lines and normalized to GAPDH and to eutopic […]: Real Time PCR analysis showing D2 mRNA expression after 48 h of 100 nM quinagolide treatment (Q100) by eutopic and ectopic EMSCs. Data are represented as mean±SD of three different eutopic or ectopic (ovarian and peritoneal) lines and normalized to GAPDH and to untreated […] was performed: *=P<0.05 vs CTL. Trizol Reagent (Ambion) was used to isolate total RNA of different cell preparations, according to the manufacturer's protocol. RNA was then quantified spectrophotometrically using Nanodrop ND-1000. Quantitative real-time PCR was performed for gene expression analysis. Briefly, using the HighCapacity cDNA Reverse Transcription Kit (Applied Biosystems), first-strand cDNA was produced from 200 ng of total RNA. […] Fold change expression respect to control was calculated for all samples."}, "ectopic EMSCs": {"tested_on": "ectopic EMSCs", "experiment": "Annexin V apoptosis assay on E-MSCs", "conditions": "different concentrations, after 24, 48 and 72 hours", "experimental": "(§1) FIG. 3: Quinagolide effect on EMSCs apoptosis and proliferation. A: Quinagolide concentration-response curve on ectopic EMSCs in both apoptosis (N=1) and proliferation (N=2) assays. B: Effect of two selected quinagolide doses (10^−5 and 10^−7M) on HUVECs (N=1) and ectopic E-MSCs (N=3) apoptosis and proliferation assays (N=2). Data are represented as mean±SD of the indicated number of experiments and normalized to untreated cells (Control). Annexin V assays were performed using the Muse™ Annexin V & Dead Cell Kit (Millipore), according to the manufacturer's recommendations. Briefly, 20×10^3 cells were plated and after 24 h treated with different concentrations of quinagolide. After 24, 48 and 72 hours, cells were detached and resuspended in Muse™ Annexin V & Dead Cell Kit and the percentage of apoptotic cells (Annexin V+) was measured. Data are expressed as the mean±standard deviation (SD) of the media of absorbance of at least three different experiments and normalized to control."}, "HUVECs": {"tested_on": "HUVECs", "experiment": "Annexin V apoptosis assay on HUVECs", "conditions": "after 24 hours of quinagolide treatment, 10^-5 and 10^-7 M", "experimental": "as §1"}, "ectopic E-MSCs": {"tested_on": "ectopic E-MSCs", "experiment": "Matrigel transwell invasion assay, ectopic E-MSCs", "experimental": "FIG. 4: Quinagolide effect on EMSCs invasion. A and B: Representative micrographs (A) and quantification (B) of quinagolide effect (100 nM) on eutopic and ectopic (both ovarian and peritoneal) EMSCs invasion (original magnification: ×100). C: Concentration response effect of quinagolide treated ectopic EMSCs invasion. D and E: Quantification (D) and representative micrographs (E) (original magnification: ×100) of invasion assays performed on ectopic EMSCs (both ovarian and peritoneal), treated with 100 nM quinagolide (Q100 nM), 5 μM spiperone(S) or a combination of quinagolide and spiperone (S+Q100 nM). All invasion data are represented as mean±SD of at least three independent experiments, performed on different EMSC lines, and normalized to untreated cells (CTL). One-way ANova was performed: *=p<0.05 and **=p<0.001 vs CTL. Quinagolide powder (provided by Ferring Pharmaceuticals) was stored at 4° C. and resuspended in dimethylsulphoxide (DMSO) to a stock solution of 1 mM immediately before use. Spiperone powder (Sigma-Aldrich) was resuspended in water to a stock concentration of 1 mM and stored at −20° C. Cabergoline powder (Sigma-Aldrich) was dissolved in DMSO to a stock concentration of 25 mM and stored at −20° C. […] Quinagolide, cabergoline, sorafenib and cabozantinib and were administered for 24 hours during co-culture experiments, while spiperone was added to culture medium 1 h before quinagolide treatment. […] E-MSCs were seeded in triplicate in Matrigel-precoated (100 μg Matrigel/transwell) 8-um pore transwells at a concentration of 50,000 cells per well in 200 μl of RPMI 2% FCS with/without quinagolide at the indicated concentration. To test the D2 antagonist effect, E-MSCs were pre-treated with spiperone (5 μM) for 1 h at 37° C. before cell detachment. After 48 hours, invaded E-MSCs on the bottom side of the transwell were fixed with methanol and stained with crystal violet. At least five pictures per transwell were acquired (original magnification: 100×), and the percentage of transwell area covered by invaded EMSCs was quantitatively measured by ImageJ software."}}}
{"compound": "CCCN1C[C@@H](NS(=O)(=O)N(CC)CC)C[C@@H]2Cc3c(O)cccc3C[C@H]21", "note": "[quinagolide, N,N-diethyl-N′-[(3S,4aS,10aR)-6-hydroxy-1-propyl-1,2,3,4,4a,5,10,10a-octahydrobenzo[g]quinolin-3-yl]sulfamide]", "values": [{"measurement": "D2 mRNA expression", "setting": "[1]", "result": "reduced"}, {"measurement": "apoptosis of E-MSCs (Annexin V+)", "setting": "ectopic EMSCs", "result": "did not increase apoptosis"}, {"measurement": "apoptosis of HUVEC cells", "setting": "HUVECs", "result": "did not show alteration"}, {"measurement": "invasion of ectopic E-MSC lines", "setting": "ectopic E-MSCs; 100 nM, 48 h, Matrigel, vs untreated", "result": "significantly reduced"}, {"measurement": "concentration response of invasion reduction", "setting": "ectopic E-MSCs; ectopic EMSCs, 48 h (FIG. 4C)", "result": "dose-dependent"}]}
